Measured values taken from US20100009997A1, “METHOD OF TREATING A METABOLIC OR NEUROPSYCHIARTY DISORDER WITH A BH4 DERIVATIVE PRODRUG” (BIOMARIN PHARMACEUTICAL INC., priority 2007, published 2010).

Legend:
[1] = set-up: species or system Sprague Dawley rats; conditions: male, Sprague Dawley, rat, in vivo, po, 100 mg/kg
Method: This example allows for comparison of the pharmacokinetics of the BH4 derivative versus that of BH4 following single oral administration in rats.
Single doses of BH4 (10 and 100 mg/kg) were administered orally to a […] of male Sprague Dawley rats (6 weeks old) under fasting conditions. Single doses of Compound I were administered orally to a […] of male Sprague Dawley rats (6 weeks old) under fasting conditions.
With respect to the administered BH4, the maximum total biopterin concentrations in plasma 2 hrs and 1 hr post-dosing were 108 ng/ml (i.e., about 3 fold the endogenous level) and 1227 ng/ml (i.e., about 30 fold the endogenous level), respectively. […] The ratio of reduced biopterin to total biopterins in plasma (i.e., the reduced-form ratio) was relatively static (73%-96%).

[2] = set-up: species or system cynomolgus monkeys; conditions: female, cynomolgus monkey, in vivo, po, 10 mg/kg
Method: The example allows comparison of the pharmacokinetics of sapropterin and the BH4 derivative after a single oral administration in groups of cynomolgus monkeys.
A single dose of sapropterin (10 mg/kg) was administered orally to a first group of female cynomolgus monkeys (3/group) under fasting conditions. A single dose of Compound I (10 mg/kg) was administered orally to second group of female cynomolgus monkeys (3/group) under fasting conditions.
The bioavailability (F) following a 10 mg/kg oral administration to female monkeys was about 9%.

| biopterin elimination half-life (t1/2) [1] | bioavailability (F) [2] | plasma elimination half-life of biopterin [2] | SMILES |
| --- | --- | --- | --- |
| about 1.1 hr | – | – | C[C@H](O)[C@H](O)[C@H]1CNc2nc(N)[nH]c(=O)c2N1 [BH4, (6R)-5,6,7,8-tetrahydro-L-biopterin] |
| – | about 9% | approximately 1.4 hrs | C[C@H](O)[C@H](O)[C@H]1CNc2nc(N)[nH]c(=O)c2N1 [sapropterin] |
